Laboratory results reported in patent publication US4879278A, “Isolation and structural elucidation of the cytostatic linear depsipeptide dolastatin 15” (priority 1989, dated 1989).
≈ marks a conversion by molar mass, not a printed value. Like-named read-outs stand apart in the source and are kept apart here. Non-standard residues stand in square brackets, D forms with d. Residues, ends and D or L forms follow the SMILES beside them. *: point of attachment. X3 = COC1=CC(=O)N(C(=O)[C@@H](O*)C(C)C)[C@H]1Cc1ccccc1; NMe2Val = CC(C)[C@@H](C(=O)*)N(C)C; NMeV = CN[C@H](C(=O)O)C(C)C

Columns and labels:
[1] = tested on: P388 lymphocytic leukemia cell line; assay: P388 in vitro cell line growth inhibition; type: cell-based, murine
Protocol: Because of the dolastatin's potency, the sea hare seems to require only vanishingly small quantities (about 1 mg each from 100 kg), making isolation and structural elucidation of these peptides exceptionally challenging. Later another substance was isolated and determined to be a unique linear pentapeptide and was denominated "dolastatin 10". […] The PS System is an excellent predictor of activity against various types of human neoplasms (See: Vendetti et al, Lloydia, 30, 332 et seq (1967) and references cited therein.)

[2] = tested on: P388 lymphocytic leukemia cell line; conditions: PS leukemia; cited from earlier work

SMILES | ED50 [1] | ED50 [2]
COC1=CC(=O)N(C(=O)[C@@H](OC(=O)[C@@H]2CCCN2C(=O)[C@@H]2CCCN2C(=O)[C@H](C(C)C)N(C)C(=O)[C@@H](NC(=O)[C@H](C(C)C)N(C)C)C(C)C)C(C)C)[C@H]1Cc1ccccc1 [Dolastatin 15] (NMe2Val-V[NMeV]PP-X3) | 0.0024 µg/mL (≈ 0.00287 µM) | –
CC[C@H](C)[C@@H]([C@@H](CC(=O)N1CCC[C@H]1[C@H](OC)[C@@H](C)C(=O)N[C@@H](Cc1ccccc1)c1nccs1)OC)N(C)C(=O)[C@@H](NC(=O)[C@H](C(C)C)N(C)C)C(C)C [dolastatin 10] | – | 46 µg/mL (≈ 58.6 µM)
